{"source": "ChEMBL document CHEMBL5329194", "about": "“Design, Synthesis, and Evaluation of 18F-Labeling CYP1B1 PET Tracer Based on 2-Phenylquinazolin” (Bioorg Med Chem Lett, 2023)", "key": {"[1]": {"assay": "Drug uptake in human HCT-15 cells measured after 30 mins", "type": "ADME, cell-based", "conditions": "hct-15, 0.5 h"}, "Cytochrome P450 1A1": {"biological_target": "T1, Cytochrome P450 1A1 (Homo sapiens, UniProt P04798)", "T1 sequence (P04798 whole entry)": "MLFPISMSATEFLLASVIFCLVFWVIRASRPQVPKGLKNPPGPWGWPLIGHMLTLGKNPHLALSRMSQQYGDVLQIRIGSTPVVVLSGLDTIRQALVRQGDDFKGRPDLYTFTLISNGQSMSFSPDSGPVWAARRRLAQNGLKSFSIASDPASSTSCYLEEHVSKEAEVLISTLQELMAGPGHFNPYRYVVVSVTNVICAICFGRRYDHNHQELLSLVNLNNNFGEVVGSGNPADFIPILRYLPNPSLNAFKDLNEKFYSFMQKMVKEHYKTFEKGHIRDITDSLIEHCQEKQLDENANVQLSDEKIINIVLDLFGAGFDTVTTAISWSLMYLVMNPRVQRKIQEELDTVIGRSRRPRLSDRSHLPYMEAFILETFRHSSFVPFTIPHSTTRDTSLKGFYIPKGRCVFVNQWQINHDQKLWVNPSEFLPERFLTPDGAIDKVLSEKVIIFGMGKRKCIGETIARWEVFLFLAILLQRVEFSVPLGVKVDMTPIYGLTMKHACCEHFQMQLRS", "assay": "Inhibition of CYP1A1 (unknown origin)", "type": "ADME"}, "Cytochrome P450 1A2": {"biological_target": "T2, Cytochrome P450 1A2 (Homo sapiens, UniProt P05177)", "T2 sequence (P05177 whole entry)": "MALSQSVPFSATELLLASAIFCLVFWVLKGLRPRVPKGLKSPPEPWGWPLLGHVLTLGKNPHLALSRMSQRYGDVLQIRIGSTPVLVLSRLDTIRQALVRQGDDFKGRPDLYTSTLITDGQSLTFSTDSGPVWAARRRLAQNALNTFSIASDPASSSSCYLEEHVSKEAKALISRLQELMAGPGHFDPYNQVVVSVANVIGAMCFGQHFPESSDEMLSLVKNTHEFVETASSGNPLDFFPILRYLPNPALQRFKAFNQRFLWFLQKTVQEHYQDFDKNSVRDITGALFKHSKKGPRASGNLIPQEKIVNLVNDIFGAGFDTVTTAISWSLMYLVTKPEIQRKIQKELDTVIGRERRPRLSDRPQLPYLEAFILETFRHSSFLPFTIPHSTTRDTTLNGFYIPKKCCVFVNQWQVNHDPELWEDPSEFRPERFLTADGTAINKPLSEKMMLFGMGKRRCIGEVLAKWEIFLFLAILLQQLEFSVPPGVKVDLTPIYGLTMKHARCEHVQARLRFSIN", "assay": "Inhibition of CYP1A2 (unknown origin)", "type": "ADME"}, "CYP1A2 versus CYP1B1": {"system": "CYP1A2 versus CYP1B1", "assay": "Selectivity ratio of IC50 for inhibition of CYP1A2 (unknown origin) to IC50 for inhibition of CYP1B1 (unknown origin)", "type": "ADME", "conditions": "human; read-out: Ratio IC50"}, "CYP1A1 versus CYP1B1": {"system": "CYP1A1 versus CYP1B1", "assay": "Selectivity ratio of IC50 for inhibition of CYP1A1 (unknown origin) to IC50 for inhibition of CYP1B1 (unknown origin)", "type": "ADME", "conditions": "human; read-out: Ratio IC50"}, "Cytochrome P450 1B1": {"biological_target": "T3, Cytochrome P450 1B1 (Homo sapiens, UniProt Q16678)", "T3 sequence (Q16678 whole entry)": "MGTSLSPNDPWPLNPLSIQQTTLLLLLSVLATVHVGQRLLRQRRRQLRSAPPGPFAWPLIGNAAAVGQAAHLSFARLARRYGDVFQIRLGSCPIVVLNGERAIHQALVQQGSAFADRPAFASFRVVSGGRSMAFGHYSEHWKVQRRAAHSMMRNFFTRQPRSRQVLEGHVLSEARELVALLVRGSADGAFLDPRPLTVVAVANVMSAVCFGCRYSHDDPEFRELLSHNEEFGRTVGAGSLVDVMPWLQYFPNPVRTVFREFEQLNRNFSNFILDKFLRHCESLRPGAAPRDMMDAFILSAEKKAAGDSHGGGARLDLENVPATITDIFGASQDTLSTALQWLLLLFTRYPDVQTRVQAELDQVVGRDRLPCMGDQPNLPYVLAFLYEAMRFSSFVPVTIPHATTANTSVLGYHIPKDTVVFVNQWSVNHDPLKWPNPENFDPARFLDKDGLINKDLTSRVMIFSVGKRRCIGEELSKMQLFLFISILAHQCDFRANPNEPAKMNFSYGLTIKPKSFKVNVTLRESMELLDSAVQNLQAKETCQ", "assay": "Inhibition of CYP1B1 (unknown origin) by EROD assay", "type": "ADME"}, "[2]": {"assay": "Drug uptake in human MCF7 cells measured after 30 mins", "type": "ADME, cell-based", "conditions": "mcf7, 0.5 h"}}, "data": [{"smiles": "FCCOCCOCCOc1nc(-c2ccc(Br)cc2)nc2ccccc12", "values": [{"measurement": "Drug uptake", "setting": "[1]", "value": 25.61, "unit": "%"}, {"measurement": "IC50", "setting": "Cytochrome P450 1A1", "value": "> 1000", "unit": "nM"}, {"measurement": "IC50", "setting": "Cytochrome P450 1A2", "value": "> 1000", "unit": "nM"}, {"measurement": "selectivity ratio", "setting": "CYP1A2 versus CYP1B1", "value": "> 20.7"}, {"measurement": "selectivity ratio", "setting": "CYP1A1 versus CYP1B1", "value": "> 20.7"}, {"measurement": "IC50", "setting": "Cytochrome P450 1B1", "value": 48.2, "unit": "nM"}, {"measurement": "Drug uptake", "setting": "[2]", "value": 21.56, "unit": "%"}]}]}
